Results: ChEMBL document CHEMBL1134740, “3,28-Di-O-(dimethylsuccinyl)-betulin isomers as anti-HIV agents” (Bioorg Med Chem Lett, 2001)

Tests used:
H9 [1] = assay: Evaluated for the anti-HIV activity against HIV-1 replication in H9 lymphocyte cells; Toxic at all concentrations; assay type: functional, cell-based; conditions: Homo sapiens
[2] = Therapeutic Index (IC50/EC50) of the compound; Toxic at all concentrations
[3] = Therapeutic Index (IC50/EC50) of the compound
H9 [4] = assay: Evaluated for the anti-HIV activity against HIV-1 replication in mock-infected H9 cells; assay type: functional, cell-based; conditions: Homo sapiens
H9 [5] = assay: Evaluated for the anti-HIV activity against HIV-1 replication in H9 lymphocyte cells; assay type: functional, cell-based; conditions: Homo sapiens

EC50 (H9 [5]) [µM] | Structure (SMILES) | Activity (H9 [1]) | Ratio [2] | selectivity ratio [3] | IC50 (H9 [4]) [µM]
0.00087 | C=C(C)[C@@H]1CC[C@]2(COC(=O)C(C)(C)CC(=O)O)CC[C@]3(C)[C@H](CC[C@@H]4[C@@]5(C)CC[C@H](OC(=O)CC(C)(C)C(=O)O)C(C)(C)[C@@H]5CC[C@]43C)[C@@H]12 |  |  | 42400 | 36.9
0.4 | C=C(C)[C@@H]1CC[C@]2(COC(=O)CC(C)(C)C(=O)O)CC[C@]3(C)[C@H](CC[C@@H]4[C@@]5(C)CC[C@H](OC(=O)C(C)(C)CC(=O)O)C(C)(C)[C@@H]5CC[C@]43C)[C@@H]12 |  |  | 96.5 | 38.6
< 0.00035 | C=C(C)[C@@H]1CC[C@]2(C(=O)O)CC[C@]3(C)[C@H](CC[C@@H]4[C@@]5(C)CC[C@H](OC(=O)CC(C)(C)C(=O)O)C(C)(C)[C@@H]5CC[C@]43C)[C@@H]12 [BEVIRIMAT] |  |  | > 20000 | 
< 0.18 | C=C(C)[C@@H]1CC[C@]2(COC(=O)CC(C)(C)C(=O)O)CC[C@]3(C)[C@H](CC[C@@H]4[C@@]5(C)CC[C@H](O)C(C)(C)[C@@H]5CC[C@]43C)[C@@H]12 |  |  | > 207 | 37.4
0.02 | C=C(C)[C@@H]1CC[C@]2(COC(=O)CC(C)(C)C(=O)O)CC[C@]3(C)[C@H](CC[C@@H]4[C@@]5(C)CC[C@H](OC(=O)CC(C)(C)C(=O)O)C(C)(C)[C@@H]5CC[C@]43C)[C@@H]12 |  |  | 1680 | 33.6

Second part, the compound before the results:

Structure (SMILES) | EC50 (H9 [5]) [µM] | Activity (H9 [1]) | Ratio [2] | selectivity ratio [3] | IC50 (H9 [4]) [µM]
C=C(C)[C@@H]1CC[C@]2(COC(=O)C(C)(C)CC(=O)O)CC[C@]3(C)[C@H](CC[C@@H]4[C@@]5(C)CC[C@H](OC(=O)C(C)(C)CC(=O)O)C(C)(C)[C@@H]5CC[C@]43C)[C@@H]12 |  | Toxic at all concentrations | Toxic at all concentrations |  | 
C=C(C)[C@@H]1CC[C@]2(C(=O)O)CC[C@]3(C)[C@H](CC[C@@H]4[C@@]5(C)CC[C@H](OC(=O)COCC(=O)O)C(C)(C)[C@@H]5CC[C@]43C)[C@@H]12 |  |  |  | 1170 | 
C=C(C)[C@@H]1CC[C@]2(COC(=O)CC(C)(C)CC(=O)O)CC[C@]3(C)[C@H](CC[C@@H]4[C@@]5(C)CC[C@H](OC(=O)CC(C)(C)CC(=O)O)C(C)(C)[C@@H]5CC[C@]43C)[C@@H]12 |  |  |  | 21500 | 
C=C(C)[C@@H]1CC[C@]2(COC(=O)C(C)(C)CC(=O)O)CC[C@]3(C)[C@H](CC[C@@H]4[C@@]5(C)CC[C@H](O)C(C)(C)[C@@H]5CC[C@]43C)[C@@H]12 | 0.18 |  |  | 159 | 28.6
